Calls of active or inactive are those of the source. The rule behind the calls is not given here.
What was measured:
[1] = biological target: T1, Adenosine receptor A1 (Homo sapiens, UniProt P30542); experiment: (§1) Displacement of [3H]DPCPX from human adenosine A1 receptor expressed in CHO cells after 2 hrs by scintillation counting analysis relative to control; assay type: cell-based
T1 sequence (P30542 whole entry): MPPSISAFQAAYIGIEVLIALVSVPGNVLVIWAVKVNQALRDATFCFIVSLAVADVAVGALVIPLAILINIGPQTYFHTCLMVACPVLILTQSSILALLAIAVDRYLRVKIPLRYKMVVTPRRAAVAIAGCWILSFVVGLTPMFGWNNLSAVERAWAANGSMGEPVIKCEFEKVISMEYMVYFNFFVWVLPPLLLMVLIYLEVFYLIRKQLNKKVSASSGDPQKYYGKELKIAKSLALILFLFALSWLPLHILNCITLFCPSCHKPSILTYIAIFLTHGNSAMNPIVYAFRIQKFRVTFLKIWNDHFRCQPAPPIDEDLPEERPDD

[2] = biological target: T2, Adenosine receptor A1 (Homo sapiens) (UniProt P30542); experiment: as §1; assay type: cell-based
T2 sequence (whole entry): T1 sequence (P30542 whole entry)

[3] = biological target: T2, Adenosine receptor A1 (Homo sapiens); experiment: Binding affinity to human adenosine A1 receptor expressed in CHO cells at 100 nM after 30 mins by confocal microscopy in presence of DPCPX; assay type: cell-based
[4] = biological target: T1, Adenosine receptor A1; experiment: (§2) Agonist activity at human adenosine A1 receptor expressed in CHO cells assessed as Gi-mediated inhibition of forskolin-stimulated SPAP secretion incubated for 10 mins prior to forskolin challenge measured after 5 hrs by spectrophotometry; assay type: functional, cell-based
[5] = biological target: T2, Adenosine receptor A1 (Homo sapiens); experiment: as §2; assay type: functional, cell-based
[6] = biological target: T2, Adenosine receptor A1 (Homo sapiens); experiment: Binding affinity to human adenosine A1 receptor expressed in CHO cells at 100 nM after 30 mins by confocal microscopy; assay type: cell-based
[7] = biological target: T2, Adenosine receptor A1 (Homo sapiens); experiment: Agonist activity at human adenosine A1 receptor expressed in CHO cells assessed as Gi-mediated inhibition of forskolin-stimulated SPAP secretion incubated for 10 mins prior to forskolin challenge measured after 5 hrs in presence of 1 uM adenosine A1 receptor antagonist XAC by spectrophotometry; assay type: functional, cell-based
[8] = biological target: T1, Adenosine receptor A1; experiment: (§3) Agonist activity at human adenosine A1 receptor expressed in CHO cells assessed as Gs-mediated activation of forskolin-stimulated SPAP secretion incubated for 10 mins prior to forskolin challenge measured after 5 hrs by spectrophotometry; assay type: functional, cell-based
[9] = biological target: T2, Adenosine receptor A1 (Homo sapiens); experiment: as §3; assay type: functional, cell-based
[10] = biological target: T2, Adenosine receptor A1 (Homo sapiens); experiment: Agonist activity at human adenosine A1 receptor expressed in CHO cells assessed as Gs-mediated activation of forskolin-stimulated SPAP secretion up to 10^-5 M incubated for 10 mins prior to forskolin challenge measured after 5 hrs by spectrophotometry; assay type: functional, cell-based
[11] = biological target: T2, Adenosine receptor A1 (Homo sapiens); experiment: Binding affinity to human adenosine A1 receptor expressed in CHO cells assessed as internalization at 100 nM after 30 mins by confocal microscopy; assay type: cell-based

| SMILES | Ki [1] [µM] | Activity [2] [%] | Activity [3] | IC50 [4] [µM] | inhibition [5] [%] | Activity [6] | Activity [7] | EC50 [8] [µM] | Activity [9] | Activity [10] | Activity [11] |
| --- | --- | --- | --- | --- | --- | --- | --- | --- | --- | --- | --- |
| CCNC(=O)[C@H]1O[C@@H](n2cnc3c(NCCNC(=O)COc4ccc(/C=C/C5=[N+]6C(=Cc7ccc(-c8cccs8)n7[B-]6(F)F)C=C5)cc4)ncnc32)[C@H](O)[C@@H]1O | 0.363 | 50 | inactive | 0.00204 | 100 | Active | inactive | 0.234 | 64% |  |  |
| CCNC(=O)[C@H]1O[C@@H](n2cnc3c(NCCCCCCCCNC(=O)COc4ccc(/C=C/C5=[N+]6C(=Cc7ccc(-c8cccs8)n7[B-]6(F)F)C=C5)cc4)ncnc32)[C@H](O)[C@@H]1O |  |  | inactive | 0.0269 |  |  | inactive |  | inactive | inactive |  |
| CCNC(=O)[C@H]1O[C@@H](n2cnc3c(N)ncnc32)[C@H](O)[C@@H]1O |  | 73 |  |  | 105 |  | inactive |  | 177% |  |  |
| CCNC(=O)[C@H]1O[C@@H](n2cnc3c(NCCCCCCCCCCCNC(=O)COc4ccc(/C=C/C5=[N+]6C(=Cc7ccc(-c8cccs8)n7[B-]6(F)F)C=C5)cc4)ncnc32)[C@H](O)[C@@H]1O |  |  | inactive | 0.129 |  |  | inactive |  | inactive | inactive | Active |
| CCNC(=O)[C@H]1O[C@@H](n2cnc3c(NCCCCNC(=O)COc4ccc(/C=C/C5=[N+]6C(=Cc7ccc(-c8cccs8)n7[B-]6(F)F)C=C5)cc4)ncnc32)[C@H](O)[C@@H]1O | 0.263 | 43 | inactive | 0.00525 | 101 |  | inactive | 2.34 | 155% |  |  |
| CCNC(=O)[C@H]1O[C@@H](n2cnc3c(NCCOCCOCCOCCNC(=O)COc4ccc(/C=C/C5=[N+]6C(=Cc7ccc(-c8cccs8)n7[B-]6(F)F)C=C5)cc4)ncnc32)[C@H](O)[C@@H]1O |  |  |  | 0.191 | 99 |  | inactive |  | inactive |  |  |
| CCNC(=O)[C@H]1O[C@@H](n2cnc3c(NCCOCCOCCNC(=O)COc4ccc(/C=C/C5=[N+]6C(=Cc7ccc(-c8cccs8)n7[B-]6(F)F)C=C5)cc4)ncnc32)[C@H](O)[C@@H]1O |  |  | inactive | 0.0741 | 102 | Active | inactive |  | inactive |  |  |
| CCNC(=O)[C@H]1O[C@@H](n2cnc3c(NCCCNC(=O)COc4ccc(/C=C/C5=[N+]6C(=Cc7ccc(-c8cccs8)n7[B-]6(F)F)C=C5)cc4)ncnc32)[C@H](O)[C@@H]1O | 0.417 | 59 | inactive | 0.00049 | 97 | Active | inactive | 0.263 | 188% |  |  |

Source: ChEMBL document CHEMBL3217410, “New potent, short-linker BODIPY-630/650TM labelled fluorescent adenosine receptor agonists” (Medchemcomm, 2012)
